The values below come from PubChem BioAssay (NCI).

Test systems include RXF 393 renal; MDA-MB-231 breast; ACHN renal; HT29 colon; KM12 colon; SR leukemia; BT-549 breast; MALME-3M melanoma; OVCAR-5 ovarian; SK-MEL-2 melanoma.
Common to all, as to assay: inhibition of tumour cell growth, NCI panel, 48 h

Molecules are shown by their SMILES. “And” between values parts separate entries of the source, which are not always exact repeats. Identical values can stand only once.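 Cells were grown in 96-well plates and exposed to each compound for 48 hours at five concentrations; endpoints were interpolated linearly between bracketing concentrations, or set to the highest concentration if not reached. Here, GI50 denotes the concentration required for 50% inhibition of growth. At the TGI there is no net growth.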 Bounds are passed on as bounds.

`O=C(Nc1cnc(C(F)(F)F)cn1)c1cc(Cl)ccc1O`: the GI50 is 318 nM with RXF 393 renal; 270 nM in the assay with MDA-MB-231 breast; 269 nM with ACHN renal; 2560 nM with HT29 colon; 343 nM with KM12 colon; 347 nM in the assay on SR leukemia. Also, the GI50 was 255 nM with BT-549 breast, 197 nM in the assay with MALME-3M melanoma, 343 nM in the assay with OVCAR-5 ovarian and 271 nM in the assay with SK-MEL-2 melanoma. Further, the TGI is 922 nM with RXF 393 renal; 946 nM with MDA-MB-231 breast; 1160 nM with ACHN renal; more than 100000 nM with HT29 colon; 16200 nM in the assay with KM12 colon; 2190 nM in the assay with SR leukemia. For the same compound, the TGI in the assay with BT-549 breast is 835 nM; with MALME-3M melanoma, 565 nM; in the assay on OVCAR-5 ovarian it was more than 100000 nM; with SK-MEL-2 melanoma it was 840 nM.
With `CCOC(=O)C1=C(C)N2C(=NC3=C(CCC/C3=C\c3ccc(Cl)cc3)C2c2ccc(Cl)cc2)S1` (centres undefined), the GI50 is 1880 nM in the assay with RXF 393 renal; 3060 nM in the assay with MDA-MB-231 breast; 3640 nM with ACHN renal; 2350 nM in the assay on HT29 colon; 1930 nM in the assay on KM12 colon; 1650 nM in the assay on SR leukemia. Further, the GI50 with BT-549 breast was 1530 nM; in the assay on MALME-3M melanoma, 11300 nM; with OVCAR-5 ovarian, 20100 nM; in the assay with SK-MEL-2 melanoma, 19000 nM. Moreover, the TGI was 3510 nM with RXF 393 renal; 16600 nM with MDA-MB-231 breast; 33600 nM in the assay with ACHN renal; 5920 nM in the assay on HT29 colon; 3680 nM in the assay on KM12 colon; 3950 nM in the assay with SR leukemia. Moreover, the TGI was 3520 nM in the assay on BT-549 breast, 35500 nM with MALME-3M melanoma, more than 100000 nM in the assay on OVCAR-5 ovarian and 62100 nM in the assay with SK-MEL-2 melanoma.
With `CN(c1ccc(C#N)c(Cl)c1)C1CCC(NC(=O)c2ccc(N3CCN(C4CN(c5ccc6c(c5)C(=O)N(C5CCC(=O)NC5=O)C6=O)C4)CC3)cc2)CC1` (centres undefined), the GI50 in the assay with RXF 393 renal was more than 100000 nM; in the assay with MDA-MB-231 breast it was 18900 nM; in the assay with ACHN renal it was more than 100000 nM; in the assay on HT29 colon it was more than 100000 nM; in the assay with KM12 colon, more than 100000 nM; in the assay with SR leukemia it was more than 100000 nM. Moreover, the GI50 is 98600 nM in the assay with BT-549 breast, 48800 nM in the assay on MALME-3M melanoma, 47600 nM in the assay on OVCAR-5 ovarian and more than 100000 nM with SK-MEL-2 melanoma. Besides, the TGI was more than 100000 nM in the assay on RXF 393 renal; 41600 nM with MDA-MB-231 breast; more than 100000 nM with ACHN renal; more than 100000 nM in the assay on HT29 colon; more than 100000 nM in the assay with KM12 colon; more than 100000 nM in the assay on SR leukemia. Further, the TGI in the assay on BT-549 breast, with MALME-3M melanoma, in the assay on OVCAR-5 ovarian and with SK-MEL-2 melanoma was more than 100000 nM throughout.
Regarding `CCN1C(=O)N(CC)C2C1NN=c1s/c(=C\c3ccc[nH]3)c(=O)n12` (centres undefined), the GI50 in the assay on RXF 393 renal was 286 nM; in the assay on MDA-MB-231 breast, 3010 nM; in the assay with ACHN renal, 538 nM; in the assay with HT29 colon it was 342 nM; with KM12 colon it was 286 nM; in the assay with SR leukemia it was 148 nM. For the same compound, the GI50 in the assay with BT-549 breast was 834 nM; in the assay on MALME-3M melanoma it was 546 nM; with OVCAR-5 ovarian, 1590 nM; with SK-MEL-2 melanoma it was 502 nM. The TGI in the assay with RXF 393 renal is 2190 nM; in the assay with MDA-MB-231 breast it was more than 100000 nM; in the assay with ACHN renal it was more than 100000 nM; in the assay on KM12 colon it was more than 45000 nM; in the assay with SR leukemia, more than 38200 nM; with BT-549 breast, more than 100000 nM. The TGI in the assay with MALME-3M melanoma, with OVCAR-5 ovarian and in the assay on SK-MEL-2 melanoma was more than 100000 nM throughout.
On to `O=[N+]([O-])c1ccc2c(Nc3ccccc3-c3ccccc3Nc3c4ccccc4nc4cc([N+](=O)[O-])ccc34)c3ccccc3nc2c1`, for which the TGI with RXF 393 renal is 17400 nM; with MDA-MB-231 breast, 6380 nM; in the assay on ACHN renal, 49000 nM; in the assay on HT29 colon it was 26700 nM; in the assay on KM12 colon it was 36900 nM; in the assay on SR leukemia, 15400 nM. Moreover, the TGI with BT-549 breast came to 7740 nM; in the assay with MALME-3M melanoma, 50200 nM; in the assay with OVCAR-5 ovarian, 56800 nM; in the assay on SK-MEL-2 melanoma, 6550 nM.
With `Cc1cccc2c(Nc3ccc(NS(C)(=O)=O)cc3)c3ccc([N+](=O)[O-])cc3nc12`, the GI50 in the assay with RXF 393 renal is 1380 nM; with MDA-MB-231 breast, 2050 nM; in the assay with ACHN renal it was 661 nM; in the assay with HT29 colon, 1590 nM; with KM12 colon, 694 nM; in the assay on SR leukemia, 59.8 nM. Further, the GI50 was 1750 nM in the assay with BT-549 breast, 1210 nM in the assay with MALME-3M melanoma, 3950 nM with OVCAR-5 ovarian and 2550 nM with SK-MEL-2 melanoma. Further, the TGI came out at 3100 nM in the assay with RXF 393 renal; 5420 nM in the assay on MDA-MB-231 breast; 4130 nM in the assay on ACHN renal; 3470 nM in the assay on HT29 colon; 2970 nM with KM12 colon; 2690 nM in the assay with SR leukemia. The TGI worked out at 7470 nM with BT-549 breast, 3430 nM in the assay with MALME-3M melanoma, 21100 nM in the assay on OVCAR-5 ovarian and 5490 nM in the assay on SK-MEL-2 melanoma.
For `CC1(C)CC2=C(Sc3ccccc3N2)C(=O)C1C(=O)C(=O)Nc1cc(Cl)ccc1Cl` (centres undefined), the TGI in the assay on RXF 393 renal, in the assay on MDA-MB-231 breast, with ACHN renal, with HT29 colon, with KM12 colon and in the assay with SR leukemia was more than 100000 nM in each case. Besides, the TGI with BT-549 breast, in the assay with MALME-3M melanoma, with OVCAR-5 ovarian and in the assay with SK-MEL-2 melanoma was more than 100000 nM throughout.
With `C=CCn1c(=O)c2cnc(Nc3ccc(N4CCN(C)CC4)cc3)nc2n1-c1cccc(C(C)(C)O)n1`, the GI50 in the assay on RXF 393 renal was 85.5 nM and 232 nM; in the assay with MDA-MB-231 breast it was 1330 nM and 624 nM; with ACHN renal, 75 nM and 226 nM; in the assay with HT29 colon it was 207 nM and 286 nM; with KM12 colon, 293 nM and 364 nM; in the assay with SR leukemia, 269 nM and 253 nM. Also, the GI50 was 437 nM and 383 nM in the assay on BT-549 breast; 1730 nM and 593 nM with MALME-3M melanoma; 557 nM and 1050 nM in the assay with OVCAR-5 ovarian; 118 nM and 266 nM with SK-MEL-2 melanoma. The TGI with RXF 393 renal was 531 nM and 1140 nM; in the assay on MDA-MB-231 breast, 27400 nM and > 7830 nM; in the assay on ACHN renal, more than 100000 nM; in the assay on HT29 colon, 643 nM and > 3820 nM; with KM12 colon it was 1530 nM and 3070 nM; in the assay with SR leukemia, 1670 nM and 2070 nM. Moreover, the TGI in the assay on BT-549 breast is 6010 nM and > 6270 nM; in the assay on MALME-3M melanoma, 18400 nM and > 10000 nM; in the assay with OVCAR-5 ovarian it was more than 100000 nM; in the assay with SK-MEL-2 melanoma it was 956 nM and 2990 nM.
